Reference: US10000527B2, “11-substituted bile acid derivatives, process for the preparation thereof and use of these compounds as medicaments” (priority 2013, dated 2018)
Converted amounts (≈) assume the structure as drawn. Read-outs that look alike come from different tables or passages of the source.

Tests used:
[1] = tested on: A549 (Human lung adenocarcinoma epithelial cell line); assay: Anti-cancer screening, A549 cell proliferation; type: cell-based; details: for IC50: concentration required to inhibit 50% of the cell proliferation; for IC90: concentration required to inhibit 90% of the cell proliferation, read-out: MIC
[2] = tested on: HeLa (Human Cervix epithelioid carcinoma cell line); assay: Anti-cancer screening, HeLa cell proliferation; type: cell-based; details: for IC50: concentration required to inhibit 50% of the cell proliferation; for IC90: concentration required to inhibit 90% of the cell proliferation, read-out: MIC
[3] = tested on: Panc-1 (Human pancreas carcinoma cell line); assay: Anti-cancer screening, Panc-1 cell proliferation; type: cell-based; details: for IC50: concentration required to inhibit 50% of the cell proliferation; for IC90: concentration required to inhibit 90% of the cell proliferation, read-out: MIC
[4] = tested on: THP-1 (Human acute monocytic leukemia cell line); assay: Anti-cancer screening, THP-1 cell proliferation; type: cell-based; details: for IC50: concentration required to inhibit 50% of the cell proliferation; for IC90: concentration required to inhibit 90% of the cell proliferation, read-out: MIC
M. Tuberculosis [5] = assay: Anti TB ex vivo infection model, dormant; type: cell-based; details: Mycobacterium tuberculosis
[6] = tested on: M. Tuberculosis H37Ra (ACTIVE); assay: Anti TB in vitro, active; type: cell-based, Mycobacterium tuberculosis H37Ra; details: Mycobacterium tuberculosis
[7] = tested on: M. Tuberculosis H37Ra (DORMANT); assay: Anti TB in vitro, dormant; type: cell-based, Mycobacterium tuberculosis H37Ra; details: Mycobacterium tuberculosis
M. Tuberculosis [8] = assay: Anti TB ex vivo infection model, active; type: cell-based; details: Mycobacterium tuberculosis
[9] = In Vitro, H37Ra ACTIVE, read-out: IC 50
[10] = In Vitro, H37Ra ACTIVE, read-out: MIC
[11] = In Vitro, H37Ra DORMANT, read-out: IC 50
[12] = In Vitro, H37Ra DORMANT, read-out: MIC

SMILES | IC50 [1] [µg/mL] | IC90 [1] [µg/mL] | IC50 [2] [µg/mL] | IC90 [2] [µg/mL] | IC50 [3] [µg/mL] | IC90 [3] [µg/mL] | IC50 [4] [µg/mL] | IC90 [4] [µg/mL] | IC50 (M. Tuberculosis [5]) [µg/mL] | MIC (M. Tuberculosis [5]) [µg/mL] | IC50 [6, 9] [µg/mL] | MIC [6, 10] [µg/mL] | IC50 [7, 11] [µg/mL] | MIC [7, 12] [µg/mL] | IC50 (M. Tuberculosis [8]) [µg/mL] | MIC (M. Tuberculosis [8]) [µg/mL] | melting point [°C] | further results
COC(=O)CC[C@@H](C)C1CCC2C3C([C@H](n4cc(-c5ccccc5)nn4)C(=O)[C@@]21C)[C@@]1(C)CC[C@@H](OC(C)=O)C[C@H]1C[C@H]3OC(C)=O (stereo partly drawn) [Compound 1, (3R,5S,7R,10S,11S,13R)-17-((R)-5-methoxy-5-oxopentan-2-yl)-10,13-dimethyl-12-oxo-11-(4-phenyl-1H-1,2,3-triazol-1-yl)hexadecahydro-1H-cyclopenta[a]phenanthrene-3,7-diyl diacetate] | > 100 | > 100 | 7.02 | 99.1 | > 100 | > 100 | > 100 | > 100 |  |  |  |  |  |  |  |  |  | 
CCCCCCc1cn([C@@H]2C(=O)[C@@]3(C)C(CCC3[C@H](C)CCC(=O)OC)C3C2[C@@]2(C)CC[C@@H](OC(C)=O)C[C@H]2C[C@H]3OC(C)=O)nn1 (stereo partly drawn) [Compound 2, (3R,5S,7R,10S,11S,13R)-11-(4-hexyl-1H-1,2,3-triazol-1-yl)-17-((R)-5-methoxy-5-oxopentan-2-yl)-10,13-dimethyl-12-oxohexadecahydro-1H-cyclopenta[a]phenanthrene-3,7-diyl diacetate] | > 100 | > 100 | 6.59 | > 100 | > 100 | > 100 | > 100 | > 100 | 0.13 | 1.55 | 0.64 | 2.63 | 0.17 | 2.43 | 0.25 | 2.8 |  | 
COC(=O)CC[C@@H](C)C1CCC2C3C([C@H](n4cc(-c5ccc(F)cc5)nn4)C(=O)[C@@]21C)[C@@]1(C)CC[C@@H](OC(C)=O)C[C@H]1C[C@H]3OC(C)=O (stereo partly drawn) [Compound 3, (3R,5S,7R,10S,11S,13R)-11-(4-(4-fluorophenyl)-1H-1,2,3-triazol-1-yl)-17-((R)-5-methoxy-5-oxopentan-2-yl)-10,13-dimethyl-12-oxohexadecahydro-1H-cyclopenta[a]phenanthrene-3,7-diyl diacetate] | > 100 | > 100 | 9.76 | > 100 | > 100 | > 100 | > 100 | > 100 |  |  |  |  |  |  |  |  |  | 
COC(=O)CC[C@@H](C)C1CCC2C3C([C@H](n4cc(-c5ccccn5)nn4)C(=O)[C@@]21C)[C@@]1(C)CC[C@@H](OC(C)=O)C[C@H]1C[C@H]3OC(C)=O (stereo partly drawn) [Compound 4, (3R,5S,7R,10S,11S,13R)-17-((R)-5-methoxy-5-oxopentan-2-yl)-10,13-dimethyl-12-oxo-11-(4-(pyridin-2-yl)-1H-1,2,3-triazol-1-yl)hexadecahydro-1H-cyclopenta[a]phenanthrene-3,7-diyl diacetate] | > 100 | > 100 | 15.2 | 85.9 | > 100 | > 100 | > 100 | > 100 |  |  |  |  |  |  |  |  |  | 
CCOC(=O)N[C@@H]1C(=O)[C@@]2(C)C(CCC2[C@H](C)CCC(=O)OC)C2C1[C@@]1(C)CC[C@@H](OC(C)=O)C[C@H]1C[C@H]2OC(C)=O (stereo partly drawn) [Compound 5, (3R,5S,7R,10S,11S,13R)-11-((ethoxycarbonyl)amino)-17-((R)-5-methoxy-5-oxopentan-2-yl)-10,13-dimethyl-12-oxohexadecahydro-1H-cyclopenta[a]phenanthrene-3,7-diyl diacetate] | > 100 | > 100 | 34.2 | > 100 | > 100 | > 100 | > 100 | > 100 |  |  |  |  |  |  |  |  | 82 to 85 | 
COC(=O)CC[C@@H](C)C1CCC2C3C([C@H](NC(=O)C4CCCN4)C(=O)[C@@]21C)[C@@]1(C)CC[C@@H](OC(C)=O)C[C@H]1C[C@H]3OC(C)=O (stereo partly drawn) [Compound 6, (3R,5S,7R,10S,11S,13R)-17-((R)-5-methoxy-5-oxopentan-2-yl)-10,13-dimethyl-12-oxo-11-(pyrrolidine-2-carboxamido)hexadecahydro-1H-cyclopenta[a]phenanthrene-3,7-diyl diacetate] | > 100 | > 100 | > 100 | > 100 | > 100 | > 100 | > 100 | > 100 |  |  |  |  |  |  |  |  | 102.6 to 103.8 | 
COC(=O)CC[C@@H](C)C1CCC2C3C([C@H](NC(=O)C(CO)NC(=O)OC(C)(C)C)C(=O)[C@@]21C)[C@@]1(C)CC[C@@H](OC(C)=O)C[C@H]1C[C@H]3OC(C)=O (stereo partly drawn) [Compound 7, (3R,5S,7R,10S,11S,13R)-11-(2-((tert-butoxycarbonyl)amino)-3-hydroxypropanamido)-17-((R)-5-methoxy-5-oxopentan-2-yl)-10,13-dimethyl-12-oxohexadecahydro-1H-cyclopenta[a]phenanthrene-3,7-diyl diacetate] | > 100 | > 100 | 18.2 | > 100 | > 100 | > 100 | 76.2 | > 100 | 1.32 | 23.8 | 1.24 | 9.03 | 0.58 | 8.6 | 1.96 | 27.3 |  | 
COC(=O)CC[C@@H](C)C1CCC2C3C([C@H](n4nnc5ccccc54)C(=O)[C@@]21C)[C@@]1(C)CC[C@@H](OC(C)=O)C[C@H]1C[C@H]3OC(C)=O (stereo partly drawn) [Compound 8, (3R,5S,7R,10S,11S,13R)-11-(1H-benzo[d][1,2,3]triazol-1-yl)-17-((R)-5-methoxy-5-oxopentan-2-yl)-10,13-dimethyl-12-oxohexadecahydro-1H-cyclopenta[a]phenanthrene-3,7-diyl diacetate] | 20 | > 100 | 20.3 | > 100 | 50 | > 100 | 29.9 | > 100 | 1.65 | 8.16 | 1.08 | 9.79 | 1.27 | 7.15 | 1.11 | 8.6 | 106 to 109 | 
COC(=O)CC[C@@H](C)C1CCC2C3C([C@H](NC(=O)C4CCCN4C(=O)OC(C)(C)C)C(=O)[C@@]21C)[C@@]1(C)CC[C@@H](OC(C)=O)C[C@H]1C[C@H]3OC(C)=O (stereo partly drawn) [Compound 9, (3R,5S,7R,10S,11S,13R)-11-(1-(tert-butoxycarbonyl)pyrrolidine-2-carboxamido)-17-((R)-5-methoxy-5-oxopentan-2-yl)-10,13-dimethyl-12-oxohexadecahydro-1H-cyclopenta[a]phenanthrene-3,7-diyldiacetate] | 52 (≈ 72.5 µM) | > 100 | 18.6 (≈ 25.9 µM) | > 100 | 15 (≈ 20.9 µM) | > 100 | 46 (≈ 64.1 µM) | > 100 | 3.42 (≈ 4.77 µM) | 26.3 (≈ 36.7 µM) | 0.92 (≈ 1.28 µM) | 9.41 (≈ 13.1 µM) | 2.02 (≈ 2.82 µM) | 8.91 (≈ 12.4 µM) | 4.16 (≈ 5.8 µM) | 26.8 (≈ 37.4 µM) | 114 to 118 | 
COC(=O)CC[C@@H](C)C1CCC2C3C([C@H](NC(C)C)C(=O)[C@@]21C)[C@@]1(C)CC[C@@H](OC(C)=O)C[C@H]1C[C@H]3OC(C)=O (stereo partly drawn) [Compound 10, (3R,5S,7R,10S,11S,13R)-11-(isopropylamino)-17-((R)-5-methoxy-5-oxopentan-2-yl)-10,13-dimethyl-12-oxohexadecahydro-1H-cyclopenta[a]phenanthrene-3,7-diyl diacetate] | > 100 | > 100 | 11.6 | > 100 | > 100 | > 100 | > 100 | > 100 |  |  |  |  |  |  |  |  |  | 
NNC(=O)c1ccncc1 [ISONIAZID, reference compound] |  |  |  |  |  |  |  |  | 0.0024 (≈ 0.0175 µM) | 0.0078 (≈ 0.0569 µM) |  |  |  |  | 0.0024 (≈ 0.0175 µM) | 0.075 (≈ 0.547 µM) |  | IC50 ([6]; H37RA): 0.0019 µg/mL (≈ 0.0139 µM); MIC ([6]; H37RA): 0.074 µg/mL (≈ 0.54 µM); IC50 ([7]; H37RA): 0.0023 µg/mL (≈ 0.0168 µM); MIC ([7]; H37RA): 0.075 µg/mL (≈ 0.547 µM)
CC(=O)O[C@H]1C(=O)[C@@]2(C)[C@H]([C@H](OC(=O)c3ccccc3)[C@]3(O)C[C@H](OC(=O)[C@H](O)[C@@H](NC(=O)c4ccccc4)c4ccccc4)C(C)=C1C3(C)C)[C@]1(OC(C)=O)CO[C@@H]1C[C@@H]2O [Paclitaxel, reference compound] | 0.0035 (≈ 0.0041 µM) | 0.0706 (≈ 0.0827 µM) | 0.0048 (≈ 0.00562 µM) | 0.075 (≈ 0.0878 µM) | 0.128 (≈ 0.15 µM) | 5.71 (≈ 6.69 µM) | 0.137 (≈ 0.161 µM) | 5.81 (≈ 6.81 µM) |  |  |  |  |  |  |  |  |  | 
CO[C@H]1/C=C/O[C@@]2(C)Oc3c(C)c(O)c4c(O)c(c(/C=N/N5CCN(C)CC5)c(O)c4c3C2=O)NC(=O)/C(C)=C\C=C\[C@H](C)[C@H](O)[C@@H](C)[C@@H](O)[C@@H](C)[C@H](OC(C)=O)[C@@H]1C [RIFAMPICIN, reference compound] |  |  |  |  |  |  |  |  | 0.0018 (≈ 0.00219 µM) | 0.048 (≈ 0.0583 µM) | 0.0018 (≈ 0.00219 µM) | 0.048 (≈ 0.0583 µM) | 0.0014 (≈ 0.0017 µM) | 0.043 (≈ 0.0523 µM) | 0.0021 (≈ 0.00255 µM) | 0.051 (≈ 0.062 µM) |  | 
